Source: publication PMC3876054, “Tyrosol and Its Analogues Inhibit Alpha-Melanocyte-Stimulating Hormone Induced Melanogenesis” (International Journal of Molecular Sciences, 2013)

Tests used:
mushroom tyrosinase [1] = target: T1, mushroom tyrosinase (Agaricus bisporus, UniProt C7FF04); test: spectrophotometric dopachrome assay with L-tyrosine; % inhibition at […]; assay type: biochemical; conditions: read-out: % inhibition at 4 mM
T1 construct: gene PPO3

mushroom tyrosinase [2] = target: T1, mushroom tyrosinase; test: as above; assay type: biochemical; conditions: read-out: % inhibition at 0.4 mM

T1 sequence (C7FF04 2-392): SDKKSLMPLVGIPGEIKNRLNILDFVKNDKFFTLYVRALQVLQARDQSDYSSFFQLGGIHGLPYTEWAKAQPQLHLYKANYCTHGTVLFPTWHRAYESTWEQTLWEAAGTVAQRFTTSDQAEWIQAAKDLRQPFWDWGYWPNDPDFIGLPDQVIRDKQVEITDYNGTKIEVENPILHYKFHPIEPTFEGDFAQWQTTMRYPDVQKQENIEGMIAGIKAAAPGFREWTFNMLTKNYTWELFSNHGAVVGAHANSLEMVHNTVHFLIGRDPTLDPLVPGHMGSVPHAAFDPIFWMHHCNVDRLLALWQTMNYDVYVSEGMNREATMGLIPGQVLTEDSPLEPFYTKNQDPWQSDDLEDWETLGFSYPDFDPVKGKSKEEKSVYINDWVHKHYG

inhibition at 4000 µM (mushroom tyrosinase [1])	inhibition at 400 µM (mushroom tyrosinase [2])	Structure (SMILES)
42.5%	–	OCCc1ccc(O)cc1 [compound 1, tyrosol]
45.3%	–	OCCc1cccc(O)c1 [compound 2, 2-(3-hydroxyphenyl)ethanol]
46.7%	–	Cc1ccc(CCO)cc1 [compound 10, 2-(4-methylphenyl)ethanol]
–	22.2%	OC[C@H]1O[C@@H](OCCc2ccc(O)cc2)[C@H](O)[C@@H](O)[C@@H]1O [compound 11, salidroside]
